From patent US6753154B1, “Human AZU-1 gene, variants thereof and expressed gene products” (The Regents of the University of California, priority 1998, dated 2004)

System: T4-2 cells
Test: Reversion assay in 3D rBM cultures with Northern blot of AZU-1 message
Type: cell-based, human
Conditions: 3D rBM culture; AIIB2 100 μg/ml ascites protein, Tyrphostin AG 1478 100 nM
From the text: To test this, total RNA was extracted from 3D rBM cultures of S1 cells and T4-2 cells treated with or without inhibitors of either β1 integrin (mAb AIIB2) or EGFR (Tyrphostin). Results are seen in FIG. 18. […] By virtue of its connections with β1 integrin and EGFR, AZU-1 may provide essential cellular information that dictates cellular structure and phenotype.
Total RNA was extracted from cells cultured as monolayers or in 3D rBM or cells from normal tissues or in situ carcinoma with TRIzol reagent (Life Technologies, Inc. Grand Island, N.Y.). For Northern blots, total RNA (20 μg/lane) was resolved on denaturing agarose gels and transferred to Hybond-N^+ membranes (Amersham). Resulting blots were hybridized with ^32P-labeled cDNA probes and analyzed by autoradiography. A GAPDH probe was used to normalize variations in loading.
The β1-integrin function-blocking mAb AIIB2 (C. Damsky, UCSF) was introduced into the cell-embedded substratum at a concentration of 100 μg/ml ascites protein (which corresponds to 4-10 μg/ml purified rat IgG1) at the time of Matrigel gelation. Tyrphostin AG 1478 (Calbiochem) dissolved in dimethyl sulfoxide was added to the medium at a concentration of 100 nM on alternate days. Control cultures were treated with […] and vehicle only for AIIB2 antibody and inhibitor experiments, respectively.

Compound: COc1cc2ncnc(Nc3cccc(Cl)c3)c2cc1OC [Tyrphostin, Tyrphostin AG 1478]
- AZU-1 message levels in treated T4-2 cells (Northern blot): restored to S1-like levels
- phenotype of treated T4-2 cells in 3D rBM: phenotypically reverted
